Assay results published in ChEMBL document CHEMBL1909046, “DrugMatrix in vitro pharmacology data”.
Where a SMILES comes first, the peptide text is derived from it. Bridges are numbered along the chain shown (N, C = ends). [ ]: non-standard residue; d: D form. The star is where a group is joined. Ileψ(thiazoline)Cys = CC[C@H](C)[C@H](N)C1=N[C@H](C(=O)*)CS1; dOrn = NCCC[C@@H](N)C(=O)O

What was measured:
Calcitonin receptor = target: T1, Calcitonin receptor (Homo sapiens, UniProt P30988); assay type: cell membranes, Membrane; conditions: t47d; note: in other assays of this panel Not Active means under 50% inhibition at 10 µM
T1 sequence (P30988 whole entry): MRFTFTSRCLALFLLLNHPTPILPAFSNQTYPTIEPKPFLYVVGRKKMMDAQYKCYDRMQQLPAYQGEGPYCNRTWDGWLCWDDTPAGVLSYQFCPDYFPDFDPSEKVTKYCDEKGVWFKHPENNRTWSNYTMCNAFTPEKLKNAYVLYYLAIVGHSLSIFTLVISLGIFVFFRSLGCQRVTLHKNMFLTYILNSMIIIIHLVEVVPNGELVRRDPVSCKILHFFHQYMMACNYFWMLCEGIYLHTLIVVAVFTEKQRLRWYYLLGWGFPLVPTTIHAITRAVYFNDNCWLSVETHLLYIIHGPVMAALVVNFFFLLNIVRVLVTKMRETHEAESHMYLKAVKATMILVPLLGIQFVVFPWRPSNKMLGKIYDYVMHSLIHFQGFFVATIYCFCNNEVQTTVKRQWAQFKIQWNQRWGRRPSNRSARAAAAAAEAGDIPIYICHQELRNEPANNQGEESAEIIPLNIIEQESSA

Substance-P receptor = Substance-P receptor (Homo sapiens, UniProt P25103); assay type: cell membranes, CHO, Membrane; conditions: cho; note: in other assays of this panel Not Active means under 50% inhibition at 10 µM
Chain of Substance-P receptor (P25103 whole entry): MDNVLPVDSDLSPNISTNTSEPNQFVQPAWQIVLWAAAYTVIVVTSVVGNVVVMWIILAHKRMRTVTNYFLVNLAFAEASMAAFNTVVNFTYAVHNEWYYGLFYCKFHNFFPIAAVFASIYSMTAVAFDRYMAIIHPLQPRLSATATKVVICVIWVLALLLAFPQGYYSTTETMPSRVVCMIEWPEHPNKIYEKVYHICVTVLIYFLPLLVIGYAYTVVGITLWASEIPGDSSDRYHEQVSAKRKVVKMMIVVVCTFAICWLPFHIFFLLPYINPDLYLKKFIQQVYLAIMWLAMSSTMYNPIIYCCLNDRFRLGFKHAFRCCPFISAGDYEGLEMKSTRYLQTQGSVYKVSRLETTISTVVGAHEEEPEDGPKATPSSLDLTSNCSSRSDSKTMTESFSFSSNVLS

Substance-K receptor = target: T2, Substance-K receptor (Homo sapiens, UniProt P21452); assay type: cell membranes, CHO, Membrane; conditions: cho; note: in other assays of this panel Not Active means under 50% inhibition at 10 µM
T2 sequence (P21452 whole entry): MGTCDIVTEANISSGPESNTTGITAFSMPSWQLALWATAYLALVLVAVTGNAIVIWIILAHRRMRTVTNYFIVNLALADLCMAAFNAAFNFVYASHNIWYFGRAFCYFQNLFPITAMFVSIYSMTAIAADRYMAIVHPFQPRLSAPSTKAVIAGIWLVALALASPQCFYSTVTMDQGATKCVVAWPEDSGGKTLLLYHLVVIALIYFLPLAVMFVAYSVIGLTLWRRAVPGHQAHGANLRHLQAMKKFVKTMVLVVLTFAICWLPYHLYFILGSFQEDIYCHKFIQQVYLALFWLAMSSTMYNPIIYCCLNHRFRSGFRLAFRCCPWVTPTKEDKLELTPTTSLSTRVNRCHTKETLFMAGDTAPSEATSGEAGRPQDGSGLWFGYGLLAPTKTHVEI

[1] = target: C-C chemokine receptor type 5 (Homo sapiens, UniProt P51681); assay type: cell membranes, Membrane; conditions: hek293; note: in other assays of this panel Not Active means under 50% inhibition at 10 µM
Chain of C-C chemokine receptor type 5 (P51681 whole entry): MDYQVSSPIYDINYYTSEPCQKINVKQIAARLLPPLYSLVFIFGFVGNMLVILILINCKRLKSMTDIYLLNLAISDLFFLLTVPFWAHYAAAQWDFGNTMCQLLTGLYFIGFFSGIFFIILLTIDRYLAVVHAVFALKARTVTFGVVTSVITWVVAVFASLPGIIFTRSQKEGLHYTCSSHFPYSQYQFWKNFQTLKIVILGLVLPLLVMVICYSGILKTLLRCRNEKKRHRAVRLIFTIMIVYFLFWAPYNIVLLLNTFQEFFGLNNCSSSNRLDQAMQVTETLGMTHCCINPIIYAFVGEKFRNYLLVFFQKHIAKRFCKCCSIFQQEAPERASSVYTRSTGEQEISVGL

[2] = DRUGMATRIX: GABAA, Muscimol, Central radioligand binding (ligand: [3H] Muscimol); assay type: cell membranes, Rattus norvegicus, Wistar, Brain, Membrane; conditions: Not Active = under 50% inhibition at 10 µM
Glycine receptor = Glycine receptor (Rattus norvegicus, UniProt P22771+P24524+P07727+P20781); assay type: cell membranes, Wistar, Spinal cord, Membrane; note: in other assays of this panel Not Active means under 50% inhibition at 10 µM
[3] = DRUGMATRIX: Interleukin IL-1 radioligand binding (ligand: [125I] interleukin 1beta); assay type: cell membranes, Membrane; conditions: nih3t3; Not Active = under 50% inhibition at 10 µM
[4] = DRUGMATRIX: Nicotinic Acetylcholine radioligand binding (ligand: [125I] Epibatidine); assay type: cell membranes, Membrane; conditions: imr-32; Not Active = under 50% inhibition at 10 µM
[5] = DRUGMATRIX: Potassium Channel [KATP] radioligand binding (ligand: [3H] Glyburide); assay type: cell membranes, Membrane; conditions: hit-t15; Not Active = under 50% inhibition at 10 µM
[6] = target: T3, Angiotensin-converting enzyme (Oryctolagus cuniculus, UniProt P12822); experiment: biochemical; assay type: tissue-based, Lung
T3 sequence (P12822 whole entry): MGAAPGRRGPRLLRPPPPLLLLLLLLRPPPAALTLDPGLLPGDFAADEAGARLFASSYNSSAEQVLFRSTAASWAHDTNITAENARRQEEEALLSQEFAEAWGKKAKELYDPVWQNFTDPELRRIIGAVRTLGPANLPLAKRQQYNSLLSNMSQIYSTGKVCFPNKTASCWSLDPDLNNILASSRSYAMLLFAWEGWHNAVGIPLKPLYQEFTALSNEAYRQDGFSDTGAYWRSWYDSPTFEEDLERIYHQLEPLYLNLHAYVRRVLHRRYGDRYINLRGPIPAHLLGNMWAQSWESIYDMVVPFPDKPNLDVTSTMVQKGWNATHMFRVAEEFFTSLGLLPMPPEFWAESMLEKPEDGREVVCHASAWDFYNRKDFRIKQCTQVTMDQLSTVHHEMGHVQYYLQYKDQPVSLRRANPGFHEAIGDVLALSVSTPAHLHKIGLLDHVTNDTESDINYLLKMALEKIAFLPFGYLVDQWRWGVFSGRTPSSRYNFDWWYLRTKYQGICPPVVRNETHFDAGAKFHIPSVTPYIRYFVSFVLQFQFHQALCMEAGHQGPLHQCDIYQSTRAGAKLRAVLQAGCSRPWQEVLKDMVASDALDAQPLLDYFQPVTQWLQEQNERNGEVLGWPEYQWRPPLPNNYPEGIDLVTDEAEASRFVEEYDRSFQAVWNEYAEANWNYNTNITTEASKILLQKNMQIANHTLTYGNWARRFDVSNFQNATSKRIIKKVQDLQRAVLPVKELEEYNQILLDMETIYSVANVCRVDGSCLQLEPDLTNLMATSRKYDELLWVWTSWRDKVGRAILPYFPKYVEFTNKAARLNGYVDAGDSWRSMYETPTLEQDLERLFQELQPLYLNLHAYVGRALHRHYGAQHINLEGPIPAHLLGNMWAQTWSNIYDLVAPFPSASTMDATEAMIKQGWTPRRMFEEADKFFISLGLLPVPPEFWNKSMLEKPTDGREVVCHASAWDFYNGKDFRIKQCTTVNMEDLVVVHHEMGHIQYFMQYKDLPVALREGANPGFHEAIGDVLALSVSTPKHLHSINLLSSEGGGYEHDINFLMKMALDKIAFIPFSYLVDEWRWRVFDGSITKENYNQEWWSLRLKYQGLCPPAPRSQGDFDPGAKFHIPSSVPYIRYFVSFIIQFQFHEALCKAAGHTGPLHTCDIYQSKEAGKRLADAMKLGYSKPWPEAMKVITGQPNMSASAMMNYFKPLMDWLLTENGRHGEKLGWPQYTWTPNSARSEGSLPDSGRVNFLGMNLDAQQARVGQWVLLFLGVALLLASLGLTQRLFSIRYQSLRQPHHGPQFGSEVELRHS

[7] = target: Mitogen-activated protein kinase 3 (Homo sapiens, UniProt P27361); experiment: DRUGMATRIX: Protein Serine/Threonine Kinase, ERK1 enzyme inhibition (substrate: Myelin Basic Protein); set-up: species or system Escherichia coli; conditions: Not Active = under 50% inhibition at 10 µM
Chain of Mitogen-activated protein kinase 3 (P27361 whole entry): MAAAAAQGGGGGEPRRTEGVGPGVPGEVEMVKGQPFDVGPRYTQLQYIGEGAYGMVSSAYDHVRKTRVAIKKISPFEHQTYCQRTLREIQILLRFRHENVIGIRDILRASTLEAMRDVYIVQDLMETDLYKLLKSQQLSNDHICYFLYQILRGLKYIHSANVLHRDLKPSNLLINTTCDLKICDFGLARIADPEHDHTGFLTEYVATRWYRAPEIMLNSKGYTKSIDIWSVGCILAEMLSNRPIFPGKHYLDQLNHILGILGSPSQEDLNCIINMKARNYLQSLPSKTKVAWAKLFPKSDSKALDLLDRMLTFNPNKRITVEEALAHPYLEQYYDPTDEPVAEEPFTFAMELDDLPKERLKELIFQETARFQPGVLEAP

Adenosine receptor A2a = Adenosine receptor A2a (Homo sapiens, UniProt P29274); experiment: DRUGMATRIX: Adenosine A2A radioligand binding (ligand: […]); assay type: cell membranes, HEK293, Membrane; conditions: hek293; Not Active = under 50% inhibition at 10 µM
Chain of Adenosine receptor A2a (P29274 whole entry): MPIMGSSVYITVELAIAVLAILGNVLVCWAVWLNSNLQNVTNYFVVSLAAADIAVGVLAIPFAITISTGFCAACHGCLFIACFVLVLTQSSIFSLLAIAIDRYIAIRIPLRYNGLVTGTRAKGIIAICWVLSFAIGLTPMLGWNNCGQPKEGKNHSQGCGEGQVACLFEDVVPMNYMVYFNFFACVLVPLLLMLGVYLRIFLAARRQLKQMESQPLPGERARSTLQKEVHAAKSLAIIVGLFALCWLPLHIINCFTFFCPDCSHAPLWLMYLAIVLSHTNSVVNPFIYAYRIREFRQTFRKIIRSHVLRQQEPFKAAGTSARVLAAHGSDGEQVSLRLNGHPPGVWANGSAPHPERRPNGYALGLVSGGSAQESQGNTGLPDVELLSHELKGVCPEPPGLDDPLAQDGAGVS

Fc1ccc([C@@H]2CCNC[C@H]2COc2ccc3c(c2)OCO3)cc1 [PAROXETINE]
Not Active: IC50 (Calcitonin receptor) | IC50 (Substance-P receptor) | IC50 (Substance-K receptor) | IC50 [1] | IC50 [2] | Ki [2] | IC50 (Glycine receptor) | IC50 [3] | Ki [3] | IC50 [4] | Ki [4] | IC50 [5] | Ki [5] | IC50 [6] | IC50 [7] | IC50 (Adenosine receptor A2a)

COC1=CC(=O)C[C@@H](C)[C@]12Oc1c(Cl)c(OC)cc(OC)c1C2=O [GRISEOFULVIN]
Not Active: IC50 (Calcitonin receptor) | IC50 (Substance-P receptor) | IC50 (Substance-K receptor) | IC50 [1] | IC50 [2] | Ki [2] | IC50 (Glycine receptor) | IC50 [3] | Ki [3] | IC50 [4] | Ki [4] | IC50 [5] | Ki [5] | IC50 [6] | IC50 [7] | IC50 (Adenosine receptor A2a)

CC[C@H](C)[C@H](N)C1=N[C@H](C(=O)N[C@@H](CC(C)C)C(=O)N[C@H](CCC(=O)O)C(=O)N[C@H](C(=O)N[C@H]2CCCCNC(=O)[C@H](CC(N)=O)NC(=O)[C@@H](CC(=O)O)NC(=O)[C@H](Cc3cnc[nH]3)NC(=O)[C@@H](Cc3ccccc3)NC(=O)[C@H]([C@@H](C)CC)NC(=O)[C@@H](CCCN)NC2=O)[C@@H](C)CC)CS1 [BACITRACIN] ({Ileψ(thiazoline)Cys}-L[dE]IK[dOrn]I[dF]H[dD]N; lactam 4-C)
Not Active: IC50 (Calcitonin receptor) | IC50 (Substance-P receptor) | IC50 (Substance-K receptor) | IC50 [1] | IC50 [2] | Ki [2] | IC50 (Glycine receptor) | IC50 [3] | Ki [3] | IC50 [4] | Ki [4] | IC50 [5] | Ki [5] | IC50 [6] | IC50 [7] | IC50 (Adenosine receptor A2a)

CCCC[C@@H](CC)COC(=O)c1ccccc1C(=O)OC[C@@H](CC)CCCC [BIS(2-ETHYLHEXYL)PHTHALATE]
Not Active: IC50 (Calcitonin receptor) | IC50 (Substance-P receptor) | IC50 (Substance-K receptor) | IC50 [1] | IC50 [2] | Ki [2] | IC50 (Glycine receptor) | IC50 [3] | Ki [3] | IC50 [4] | Ki [4] | IC50 [5] | Ki [5] | IC50 [6] | IC50 [7] | IC50 (Adenosine receptor A2a)

O=P1(NCCCl)OCCCN1CCCl (centres undefined) [IFOSFAMIDE]
Not Active: IC50 (Calcitonin receptor) | IC50 (Substance-P receptor) | IC50 (Substance-K receptor) | IC50 [1] | IC50 [2] | Ki [2] | IC50 (Glycine receptor) | IC50 [3] | Ki [3] | IC50 [4] | Ki [4] | IC50 [5] | Ki [5] | IC50 [6] | IC50 [7] | IC50 (Adenosine receptor A2a)

CC1(C)S[C@@H]2[C@H](NC(=O)[C@H](N)c3ccc(O)cc3)C(=O)N2[C@H]1C(=O)O [AMOXICILLIN]
Not Active: IC50 (Calcitonin receptor) | IC50 (Substance-P receptor) | IC50 (Substance-K receptor) | IC50 [1] | IC50 [2] | Ki [2] | IC50 (Glycine receptor) | IC50 [3] | Ki [3] | IC50 [4] | Ki [4] | IC50 [6] | IC50 [7] | IC50 (Adenosine receptor A2a)
